These results are taken from patent US12281104B2, “Process for the production of ethyl 3-amino-1-[(3R,4S)-4-cyanotetrahydropyran-3-yl]pyrazole-4-carboxylate through chiral separation of a racemic mixture” (Intervet Inc., priority 2019, dated 2025).

Values after ≈ are worked out from the molar mass of the structure shown. Like-named read-outs stand apart in the source and are kept apart here.

The data set in a line: Solubility of Compound (V) in water and organic solvents. To be noted: for solubility: read-out: Concentration in pure solvents (solubility). The data set is classed as physicochemical. On the procedure: Example 1 Solubility of Compound (V) in Organic Solvents
The solubility of Compound (V) in water and in a set of organic solvents was determined.

Take `CCOC(=O)c1cn([C@H]2COCC[C@@H]2C#N)nc1N` (racemic) [Compound (V), ethyl 3-amino-1-[(3R,4S)-4-cyanotetrahydropyran-3-yl]pyrazole-4-carboxylate and ethyl 3-amino-1-[(3S,4R)-4-cyanotetrahydropyran-3-yl]pyrazole-4-carboxylate]: the Solubility in words result (acetonitrile) is “highly soluble”. The solubility is, setting by setting: (acetonitrile (pure solvent), organic solvent or mixture) over 200000 µg/mL; (ethanol (pure solvent), organic solvent or mixture, EtOH) 10000 µg/mL (≈ 37.8 mM); (isopropanol (pure solvent), organic solvent or mixture, iPrOH) under 5000 µg/mL; (methanol (pure solvent), organic solvent or mixture, MeOH) under 50000 µg/mL; (water (pure solvent), water) under 5000 µg/mL.
